Measured values as given in ChEMBL document CHEMBL6134844, “Development of Next-Generation Antimalarial Acridones with Radical Cure Potential” (J Med Chem, 2025).

What was measured:
Plasmodium cynomolgi [1] = test: (§1) Antiplasmodial activity against schizont Plasmodium cynomolgi B strain infected in Macaca mulatta hepatocytes incubated with sporozoite containing salivary gland homogenate obtained from dissected Anopheles dirus mosquitoes (infected with Plasmodium cynomolgi B strain) treatment started on day 4 post infection and continued daily for 4 days into fresh changed media until day 8 assessed as Liver stage (LS) activity by measuring radical cure mode by immunofluorescent staining analysis; assay type: functional, organism-based; settings: Hepatocyte
[2] = human, microsomes, 1 h
Plasmodium falciparum [3] = test: Antiplasmodial activity against asexual blood-stage (ABS) MDR Plasmodium falciparum Dd2 infected in human erythrocytes assessed as reduction in fluorescence measured after 72 hrs by Malaria SYBR Green I-based Fluorescence (MSF) assay; assay type: functional, organism-based; settings: Dd2, Erythrocyte
Plasmodium cynomolgi [4] = test: as §1, with “prophylactic” for “radical cure”; assay type: functional, organism-based; settings: Hepatocyte
Plasmodium falciparum [5] = test: Antiplasmodial activity against asexual blood-stage (ABS) ATV-resistant clinical isolate Plasmodium falciparum Tm90-C2B infected in human erythrocytes assessed as reduction in fluorescence measured after 72 hrs by Malaria SYBR Green I-based Fluorescence (MSF) assay; assay type: functional, organism-based; settings: Erythrocyte
HepG2 = test: Cytotoxicity against human HepG2 cells assessed as cell viability measured after 48 hrs by MTT assay; assay type: functional, cell-based; settings: HepG2, 48 h
[6] = as §1, with “Selectivity index, ratio of CC50 for Macaca mulatta hepatocytes to IC50 for antiplasmodial” for “Antiplasmodial”; assay type: toxicity, cell-based; settings: rhesus monkey, read-out: Selectivity Index
Plasmodium cynomolgi [7] = test: as §1, with “hypnozoite” for “schizont”; assay type: functional, organism-based; settings: Hepatocyte
[8] = as §1, with “Selectivity index, ratio of CC50 for Macaca mulatta hepatocytes to IC50 for antiplasmodial” for “Antiplasmodial”, “prophylactic” for “radical cure”; assay type: toxicity, cell-based; settings: rhesus monkey, read-out: Selectivity Index
Hepatocyte = test: Cytotoxicity against Macaca mulatta hepatocytes assessed as cell viability measured after 48 hrs by MTT assay; assay type: toxicity, cell-based; settings: rhesus monkey, 48 h
Plasmodium falciparum [9] = test: Antiplasmodial activity against asexual blood-stage (ABS) CQ-sensitive Plasmodium falciparum D6 infected in human erythrocytes assessed as reduction in fluorescence measured after 72 hrs by Malaria SYBR Green I-based Fluorescence (MSF) assay; assay type: functional, organism-based; settings: D6, Erythrocyte
[10] = mouse, microsomes, 1 h
Plasmodium cynomolgi [11] = test: as §1, with “hypnozoite” for “schizont”, “prophylactic” for “radical cure”; assay type: functional, organism-based; settings: Hepatocyte
[12] = as §1, with “Selectivity index, ratio of CC50 for Macaca mulatta hepatocytes to IC50 for antiplasmodial” for “Antiplasmodial”, “hypnozoite” for “schizont”, “prophylactic” for “radical cure”; assay type: toxicity, cell-based; settings: rhesus monkey, read-out: Selectivity Index
[13] = as §1, with “Selectivity index, ratio of CC50 for Macaca mulatta hepatocytes to IC50 for antiplasmodial” for “Antiplasmodial”, “hypnozoite” for “schizont”; assay type: toxicity, cell-based; settings: rhesus monkey, read-out: Selectivity Index

SMILES: O=c1c2c(F)cc(Cl)cc2[nH]c2cccc(Oc3ccc(OC(F)(F)F)cc3)c12
- IC50 (Plasmodium cynomolgi [1]): 16.6 µM
- t1/2 [2]: > 1 h
- IC50 (Plasmodium falciparum [3]): 188 nM
- IC50 (Plasmodium cynomolgi [4]): 7.37 µM
- IC50 (Plasmodium falciparum [5]): > 2.5 µM
- IC50 (HepG2): 189 µM
- selectivity ratio at 96 h [6]: > 1.2
- IC50 (Plasmodium cynomolgi [7]): > 20 µM
- selectivity ratio at 96 h [8]: > 2.71
- CC50 (Hepatocyte): > 20 µM
- IC50 (Plasmodium falciparum [9]): 87.8 nM
- CLH [10]: 45.4 µL/min/mg
- IC50 (Plasmodium cynomolgi [11]): > 20 µM

SMILES: O=c1c2ccc(OC3CCNCC3)cc2[nH]c2cc(F)cc(Cl)c12
- IC50 (Plasmodium cynomolgi [1]): 13.8 µM
- t1/2 [2]: > 1 h
- IC50 (Plasmodium falciparum [3]): 31.4 nM
- IC50 (Plasmodium cynomolgi [4]): 4.06 µM
- IC50 (Plasmodium falciparum [5]): > 2.5 µM
- selectivity ratio at 96 h [12]: > 3.36
- IC50 (HepG2): 48.9 µM
- selectivity ratio at 96 h [6]: > 1.45
- IC50 (Plasmodium cynomolgi [7]): > 20 µM
- selectivity ratio at 96 h [8]: > 4.92
- CC50 (Hepatocyte): > 20 µM
- IC50 (Plasmodium falciparum [9]): 27.2 nM
- CLH [10]: 72.1 µL/min/mg
- IC50 (Plasmodium cynomolgi [11]): 5.95 µM

SMILES: CO[C@@H]1[C@@H](OC)[C@H](C)[C@@](O)(CC(=O)O)O[C@H]1[C@H](C)[C@H]1O[C@@]2(CC[C@@](C)([C@H]3CC[C@@](C)([C@@H]4O[C@@H]([C@H]5O[C@](C)(O)[C@H](C)C[C@@H]5C)C[C@@H]4O[C@@H]4C[C@H](OC)[C@@H](OC)[C@H](C)O4)O3)O2)C[C@H](O)[C@H]1C [MADURAMICIN ACID]
- IC50 (Plasmodium cynomolgi [1]): 0.04 µM
- IC50 (Plasmodium cynomolgi [4]): 0.03 µM
- selectivity ratio at 96 h [12]: 236
- selectivity ratio at 96 h [6]: 59
- selectivity ratio at 96 h [13]: 78.7
- IC50 (Plasmodium cynomolgi [7]): 0.03 µM
- selectivity ratio at 96 h [8]: 78.7
- CC50 (Hepatocyte): 2.36 µM
- IC50 (Plasmodium cynomolgi [11]): 0.01 µM

SMILES: O=c1c2ccc(OC3CCNCC3)cc2[nH]c2cc(Cl)cc(F)c12
- IC50 (Plasmodium falciparum [3]): 121 nM
- IC50 (Plasmodium falciparum [5]): > 2.5 µM
- IC50 (HepG2): 38.2 µM
- IC50 (Plasmodium falciparum [9]): 662 nM

SMILES: O=c1c2ccc(Oc3ccc(OC(F)(F)F)cc3)cc2[nH]c2cc(Cl)c(F)cc12
- IC50 (Plasmodium cynomolgi [1]): > 20 µM
- t1/2 [2]: > 1 h
- IC50 (Plasmodium falciparum [3]): 11.1 nM
- IC50 (Plasmodium cynomolgi [4]): 0.27 µM
- IC50 (Plasmodium falciparum [5]): 1.52 µM
- selectivity ratio at 96 h [12]: > 15.5
- IC50 (HepG2): > 200 µM
- IC50 (Plasmodium cynomolgi [7]): > 20 µM
- selectivity ratio at 96 h [8]: > 74.1
- CC50 (Hepatocyte): > 20 µM
- IC50 (Plasmodium falciparum [9]): 14.4 nM
- CLH [10]: 177 µL/min/mg
- IC50 (Plasmodium cynomolgi [11]): 1.29 µM

SMILES: O=c1c2cccc(Oc3ccc(OC(F)(F)F)cc3)c2[nH]c2cc(Cl)cc(F)c12
- IC50 (Plasmodium cynomolgi [1]): > 20 µM
- t1/2 [2]: > 1 h
- IC50 (Plasmodium falciparum [3]): 188 nM
- IC50 (Plasmodium cynomolgi [4]): 3.33 µM
- IC50 (Plasmodium falciparum [5]): > 2.5 µM
- selectivity ratio at 96 h [12]: > 1.47
- IC50 (HepG2): 92.9 µM
- IC50 (Plasmodium cynomolgi [7]): > 20 µM
- selectivity ratio at 96 h [8]: > 6.01
- CC50 (Hepatocyte): > 20 µM
- IC50 (Plasmodium falciparum [9]): 383 nM
- CLH [10]: 25.5 µL/min/mg
- IC50 (Plasmodium cynomolgi [11]): 13.6 µM

SMILES: O=c1c2ccc(OCc3cccc(OC(F)(F)F)c3)cc2[nH]c2ccc(Cl)c(F)c12
- IC50 (Plasmodium cynomolgi [1]): 3.26 µM
- t1/2 [2]: > 1 h
- IC50 (Plasmodium falciparum [3]): 0.0004 nM
- IC50 (Plasmodium cynomolgi [4]): 0.06 µM
- IC50 (Plasmodium falciparum [5]): 0.181 µM
- selectivity ratio at 96 h [12]: > 83.3
- IC50 (HepG2): > 200 µM
- selectivity ratio at 96 h [6]: > 6.13
- selectivity ratio at 96 h [13]: > 10.3
- IC50 (Plasmodium cynomolgi [7]): 1.94 µM
- selectivity ratio at 96 h [8]: > 333
- CC50 (Hepatocyte): > 20 µM
- IC50 (Plasmodium falciparum [9]): 0.00029 nM
- CLH [10]: 21.8 µL/min/mg
- IC50 (Plasmodium cynomolgi [11]): 0.24 µM

SMILES: COc1ccc(Oc2ccc3c(=O)c4c(F)cc(Cl)cc4[nH]c3c2)cc1
- IC50 (Plasmodium cynomolgi [1]): 0.94 µM
- t1/2 [2]: > 1 h
- IC50 (Plasmodium falciparum [3]): 2.9e-05 nM
- IC50 (Plasmodium cynomolgi [4]): 0.49 µM
- IC50 (Plasmodium falciparum [5]): 0.0182 µM
- selectivity ratio at 96 h [12]: 2.4
- IC50 (HepG2): > 200 µM
- selectivity ratio at 96 h [6]: 11.5
- selectivity ratio at 96 h [13]: 1.79
- IC50 (Plasmodium cynomolgi [7]): 6.02 µM
- selectivity ratio at 96 h [8]: 22
- CC50 (Hepatocyte): 10.8 µM
- IC50 (Plasmodium falciparum [9]): 5.9e-05 nM
- CLH [10]: < 3.125 µL/min/mg
- IC50 (Plasmodium cynomolgi [11]): 4.49 µM

SMILES: O=c1c2ccc(Oc3ccc(OC(F)(F)F)cc3)cc2[nH]c2ccc(Cl)c(F)c12
- IC50 (Plasmodium cynomolgi [1]): 2.11 µM
- t1/2 [2]: > 1 h
- IC50 (Plasmodium falciparum [3]): 0.2 nM
- IC50 (Plasmodium cynomolgi [4]): 0.05 µM
- IC50 (Plasmodium falciparum [5]): 0.277 µM
- selectivity ratio at 96 h [12]: 11.4
- IC50 (HepG2): > 200 µM
- selectivity ratio at 96 h [6]: 2.17
- selectivity ratio at 96 h [13]: 1.11
- IC50 (Plasmodium cynomolgi [7]): 4.12 µM
- selectivity ratio at 96 h [8]: 91.6
- CC50 (Hepatocyte): 4.58 µM
- IC50 (Plasmodium falciparum [9]): 0.191 nM
- CLH [10]: < 3.125 µL/min/mg
- IC50 (Plasmodium cynomolgi [11]): 0.4 µM

SMILES: O=c1c2ccc(OCc3cccc(C(F)(F)F)c3)cc2[nH]c2ccc(Cl)c(F)c12
- IC50 (Plasmodium cynomolgi [1]): 1.53 µM
- t1/2 [2]: > 1 h
- IC50 (Plasmodium falciparum [3]): 0.0004 nM
- IC50 (Plasmodium cynomolgi [4]): 0.08 µM
- IC50 (Plasmodium falciparum [5]): 0.118 µM
- selectivity ratio at 96 h [12]: > 50
- IC50 (HepG2): > 200 µM
- selectivity ratio at 96 h [6]: > 13.1
- selectivity ratio at 96 h [13]: > 9.13
- IC50 (Plasmodium cynomolgi [7]): 2.19 µM
- selectivity ratio at 96 h [8]: > 250
- CC50 (Hepatocyte): > 20 µM
- IC50 (Plasmodium falciparum [9]): 0.0003 nM
- CLH [10]: 15.6 µL/min/mg
- IC50 (Plasmodium cynomolgi [11]): 0.4 µM

SMILES: CN1CCC(Oc2ccc3c(=O)c4c(F)cc(Cl)cc4[nH]c3c2)CC1
- IC50 (Plasmodium cynomolgi [1]): 9.88 µM
- IC50 (Plasmodium falciparum [3]): 23.1 nM
- IC50 (Plasmodium cynomolgi [4]): 0.54 µM
- IC50 (Plasmodium falciparum [5]): > 2.5 µM
- selectivity ratio at 96 h [12]: > 3.51
- IC50 (HepG2): 55.6 µM
- selectivity ratio at 96 h [6]: > 2.02
- selectivity ratio at 96 h [13]: > 1.1
- IC50 (Plasmodium cynomolgi [7]): 18.2 µM
- selectivity ratio at 96 h [8]: > 37
- CC50 (Hepatocyte): > 20 µM
- IC50 (Plasmodium falciparum [9]): 11.2 nM
- CLH [10]: 209.5 µL/min/mg
- IC50 (Plasmodium cynomolgi [11]): 5.7 µM

SMILES: O=c1c2ccccc2[nH]c2cc(Oc3ccc(OC(F)(F)F)cc3)ccc12
- IC50 (Plasmodium cynomolgi [1]): 1.84 µM
- IC50 (Plasmodium falciparum [3]): 0.03 nM
- IC50 (Plasmodium cynomolgi [4]): 0.54 µM
- IC50 (Plasmodium falciparum [5]): 0.0033 µM
- selectivity ratio at 96 h [12]: 2.01
- IC50 (HepG2): > 200 µM
- selectivity ratio at 96 h [6]: 1.72
- selectivity ratio at 96 h [13]: 1.05
- IC50 (Plasmodium cynomolgi [7]): 3.02 µM
- selectivity ratio at 96 h [8]: 5.85
- CC50 (Hepatocyte): 3.16 µM
- IC50 (Plasmodium falciparum [9]): 0.019 nM
- CLH [10]: 11.5 µL/min/mg
- IC50 (Plasmodium cynomolgi [11]): 1.57 µM

SMILES: CC(C)(C)OC(=O)N1CCC(Oc2ccc3c(=O)c4c(Cl)cc(F)cc4[nH]c3c2)CC1
- IC50 (Plasmodium cynomolgi [1]): 3.94 µM
- t1/2 [2]: > 1 h
- IC50 (Plasmodium falciparum [3]): 45.7 nM
- IC50 (Plasmodium cynomolgi [4]): 0.15 µM
- IC50 (Plasmodium falciparum [5]): > 2.5 µM
- selectivity ratio at 96 h [12]: 3.45
- IC50 (HepG2): 90.2 µM
- selectivity ratio at 96 h [6]: 1.2
- selectivity ratio at 96 h [13]: 1.06
- IC50 (Plasmodium cynomolgi [7]): 4.44 µM
- selectivity ratio at 96 h [8]: 31.5
- CC50 (Hepatocyte): 4.73 µM
- IC50 (Plasmodium falciparum [9]): 36.7 nM
- CLH [10]: < 3.125 µL/min/mg
- IC50 (Plasmodium cynomolgi [11]): 1.37 µM

SMILES: O=c1c2ccc(Oc3ccccc3OC(F)(F)F)cc2[nH]c2cc(Cl)cc(F)c12
- IC50 (Plasmodium cynomolgi [1]): 4.21 µM
- IC50 (Plasmodium falciparum [3]): 0.005 nM
- IC50 (Plasmodium cynomolgi [4]): 0.08 µM
- IC50 (Plasmodium falciparum [5]): 0.0288 µM
- selectivity ratio at 96 h [12]: 6.72
- IC50 (HepG2): > 200 µM
- selectivity ratio at 96 h [6]: 2.19
- selectivity ratio at 96 h [13]: 2.02
- IC50 (Plasmodium cynomolgi [7]): 4.56 µM
- selectivity ratio at 96 h [8]: 115
- CC50 (Hepatocyte): 9.21 µM
- IC50 (Plasmodium falciparum [9]): 0.005 nM
- CLH [10]: 72.3 µL/min/mg
- IC50 (Plasmodium cynomolgi [11]): 1.37 µM
